Measurements from PubChem BioAssay (NCI).
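1) Cells in 96-well plates. 2) Compound, 48 h, 5 concentrations. 3) Linear interpolation between surrounding doses. 4) Unreached endpoint = highest concentration. Abbreviation: GI50, concentration required for 50% inhibition of growth. The concentration for full growth arrest is given as TGI.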

What was measured:
Assay in all cases: NCI tumour cell line growth inhibition, 48 h
P388/ADR leukemia = system: P388/ADR leukemia
RXF-631 renal = system: RXF-631 renal
MDA-MB-231 breast = system: MDA-MB-231 breast
786-0 renal = system: 786-0 renal

Compound: O=C(NC(Cc1ccc(I)cc1)C(=O)O)c1ccc(Br)cc1 (stereo unspecified)
- TGI (P388/ADR leukemia): > 31.6 µM

Compound: COc1ccc(/C(Cl)=C(\C=O)c2ccc(F)cc2)cc1OC
- TGI (RXF-631 renal): 49.2 µM

Compound: Cc1[nH]c(=O)[nH]c(=O)c1/C=C/C(=O)O
- TGI (P388/ADR leukemia): > 1000 µM

Compound: C[C@]12CCc3nc(Nc4ccccc4)sc3C1=CC[C@@H]1[C@@H]2CC[C@]2(C)/C(=N/NC(N)=S)CC[C@@H]12
- GI50 (MDA-MB-231 breast): 4.43 µM
- TGI (MDA-MB-231 breast): > 100 µM

Compound: COc1ccc2nc3ccccc3c(NCCCCCCN(CCCl)CCCl)c2c1
- TGI (RXF-631 renal): 1.96 µM
- TGI (MDA-MB-231 breast): 3.37 µM

Compound: Cc1ccc(S(=O)(=O)OCC(=O)O)cc1
- TGI (MDA-MB-231 breast): > 100 µM
- TGI (786-0 renal): > 100 µM

Compound: COC(=O)C1=C(C(=O)OC)SC2(S1)C1=C(CCCC1)SC(C(=O)OC)=C2C(=O)OC
- TGI (MDA-MB-231 breast): 29.3 µM

Compound: Nc1ccc2[nH]c3c(-c4ccccc4)nccc3c2c1
- TGI (P388/ADR leukemia): > 100 µM
